According to patent publication EP3538062B1, “ASSOCIATION CONSISTING OF INOSITOL AND ARGININE FOR MAINTAINING HOMEOSTASIS OF THE HAIR AND SCALP” (Unifarco S.p.A., priority 2016, dated 2018):
Several values for one entry are separate records, joined by “and”; a condition that tells them apart may be missing. Equal entries are not always repeated.

Experiments:
Format in all cases: cell-based, human
[1] = test system: co-spheroidal culture DPF-ORSK; assay: Morphological evaluation of proto-follicle microtissues by H&E staining; conditions: Inositol 0.5%, Inositol 0.25% + L-arginine 0.25%
Description: (§1) The reconstituted proto-follicle was obtained by using fibroblast cells and human keratinocytes using the Gravity^PLUS™ method, a system developed by InSphero (InSphero AG, Zurich, Switzerland), which allows the formation of spheroids or micro-tissues of homogeneous size using the hanging drops technology. The micro-tissues were transferred to Gravity^TRAP plates for treatment and control of culture conditions: 37 °C incubator, 5% CO2, suitably saturated atmosphere of the culture medium.
(§2) In order to assess the biological effect of each of the above compositions on the micro-tissue cultures in question, the following parameters were measured: • Quantification of ATP, as a marker of cell viability. • Morphological evaluation during culture of the proto-follicle, by staining with hematoxylin-eosin (H&E). • Immunohistochemical evaluation of Cytokeratin 6 (CK6), wherein CK6 is a keratin type II present in the skin and the hair follicle, which has an important role in the formation of the intermediate filament and is involved in tissue remodeling during stress phenomena.
(§3) In order to observe the short- and long-term effect of the compositions mentioned above, the evaluation of the above parameters was made at 24H (T2) and 120H (T6) after the beginning of therapy.

Cytokeratin 6 (CK6) = assay: Immunohistochemical evaluation of cytokeratin 6 in proto-follicle microtissues; conditions: Inositol 0.5%, Inositol 0.25% + L-arginine 0.25%, Cyclosporin A 10 ng/mL; result in words
Description: as §1, §2, §3

type IV collagen (COLIV) = assay: Semi-quantitative determination of type IV collagen by immunofluorescence (confocal microscopy); conditions: 120 H; duplicate (one row per replicate); Inositol 0.5%, Inositol + Arginine 0.25% + 0.25%

Structure (SMILES): O[C@H]1[C@H](O)[C@@H](O)[C@H](O)[C@@H](O)[C@H]1O [Inositol]
- morphological qualitative evaluation of micro-tissues (H&E) ([1]; T2 (24H)): more compact lamellar structure
- morphological qualitative evaluation of micro-tissues (H&E) ([1]; T6 (120H), Cyclosporin A 10 ng/mL): more compact lamellar structure
- follicular CK6 expression / proto-hair structure and coloring (Cytokeratin 6 (CK6)): not different from those shown by the samples treated with Cyclosporin A
- semi-quantitative analysis of COLIV (type IV collagen (COLIV)): 69 and 94
